One experiment concerns Leishmania major. Kind of experiment: Antileishmanial activity against promastigotes of Leishmania major. Type of experiment: functional, organism-based.
In another experiment the test system is Trypanosoma cruzi. Put plainly: Antitrypanosomal activity against clone C4 Trypanosoma cruzi Tulahuen expressing LacZ. Type of experiment: functional, organism-based.
In experiment [1] the test system is Trypanosoma brucei rhodesiense. Kind of experiment: Antitrypanosomal activity against Trypanosoma brucei rhodesiense STIB900. Type of experiment: functional, organism-based.
A further experiment deals with Plasmodium falciparum. Put plainly: Antiplasmodial activity against Plasmodium falciparum K1. Type of experiment: functional, organism-based.
Experiment [2] relates to Trypanosoma brucei brucei. Kind of experiment: Antitrypanosomal activity against Trypanosoma brucei brucei. Type of experiment: functional, organism-based.
In a further experiment the test system is Leishmania donovani. Put plainly: Antileishmanial activity against axenic amastigotes of Leishmania donovani. Type of experiment: functional, organism-based.
A further experiment concerns L6. Put plainly: Cytotoxicity against rat L6 cells. Type of experiment: cell-based.
Setting [3] is: Leishmania major, read-out: IC50.
Where [4] appears, read: Trypanosoma cruzi, Tulahuen, read-out: IC50.
The mark [5] stands for this setting: Trypanosoma brucei, STIB900, read-out: IC50.
Where [6] appears, read: Trypanosoma brucei, read-out: IC50.
Setting [7] is: Leishmania donovani, read-out: IC50.

The IC50 is the concentration at which inhibition is half-maximal. For `Oc1ccc(Br)c2c1C=NCC2`, the IC50 entry was “Not Active” in the experiment on Leishmania major; “Not Active” in the experiment with Trypanosoma cruzi; “Not Active” in experiment [1]; 1.24 µM in the experiment on Plasmodium falciparum; “Not Active” in experiment [2]; “Not Active” with Leishmania donovani. Also, the IC50 in the experiment on L6 was over 100 µM.

As for `CC1=N[C@H](C)Cc2c(-c3cccc(Cl)c3)ccc(O)c21`, the IC50 in the experiment with Leishmania major (setting [3]) stood at 52.4 µM; with Trypanosoma cruzi (setting [4]), 13.9 µM; in experiment [1] (setting [5]), 7.63 µM; with Plasmodium falciparum it was 0.856 µM; in experiment [2] (setting [6]), 27.1 µM; in the experiment with Leishmania donovani (setting [7]), 24.7 µM. In addition, the IC50 in the experiment on L6 worked out at 50.8 µM.

Consider `COc1ccc(-c2cccc3ccccc23)c2c1C(C)=N[C@H](C)C2`, for which the IC50 result in the experiment on Leishmania major is “Not Active”; in the experiment on Trypanosoma cruzi (setting [4]), 15.9 µM; in experiment [1] (setting [5]) it was 3.96 µM; with Plasmodium falciparum it was 6.91 µM; in experiment [2], “Not Active”; in the experiment with Leishmania donovani (setting [7]), 14.4 µM. Inhibition with L6 was half-maximal at 34.9 µM (IC50).

For `CC1=N[C@H](C)Cc2c(-c3cccc4ccccc34)ccc(O)c21`, the IC50 with Leishmania major (setting [3]) turned out to be 13.4 µM; in the experiment on Trypanosoma cruzi (setting [4]), 15.8 µM; in experiment [1] (setting [5]) it was 11.1 µM; with Plasmodium falciparum, 0.763 µM; in experiment [2] (setting [6]), 2.74 µM; in the experiment on Leishmania donovani (setting [7]), 27.1 µM. In addition, the IC50 in the experiment on L6 was determined as 57.1 µM.

Take `COc1ccc(-c2ccc3ccccc3c2)c2c1C(C)=N[C@H](C)C2`: the IC50 with Leishmania major (setting [3]) amounted to 28.1 µM; in the experiment with Trypanosoma cruzi (setting [4]) it was 20.9 µM; in experiment [1] (setting [5]), 4.44 µM; in the experiment on Plasmodium falciparum, 1.18 µM; in experiment [2] (setting [6]), 10.1 µM; in the experiment with Leishmania donovani (setting [7]), 21.2 µM. Moreover, the IC50 in the experiment on L6 turned out to be 72 µM.

Consider `COc1ccc(-c2ccc(OC)c3ccccc23)c2c1C=NC(C)(C)C2`, for which the IC50 was 37.2 µM with Leishmania major (setting [3]); “Not Active” with Trypanosoma cruzi; “Not Active” in experiment [1]; 2.4 µM in the experiment with Plasmodium falciparum; 30.4 µM in experiment [2] (setting [6]); 1.95 µM in the experiment on Leishmania donovani (setting [7]). In the experiment on L6, this compound gave an IC50 of 43.8 µM.

`Oc1ccc(-c2ccc(O)c3ccccc23)c2c1C=NCC2`: the concentration for half-maximal inhibition (IC50) entry was “Not Active” in the experiment on Leishmania major; “Not Active” in the experiment with Trypanosoma cruzi; “Not Active” in experiment [1]; 3.49 µM in the experiment with Plasmodium falciparum; “Not Active” in experiment [2]; “Not Active” in the experiment with Leishmania donovani. Further, the IC50 in the experiment with L6 was 94.2 µM.

As to `COc1cccc2c(-c3ccc(O)c4c3CC(C)(C)N=C4)ccc(O)c12`, the concentration for half-maximal inhibition (IC50) with Leishmania major (setting [3]) was over 100 µM; in the experiment on Trypanosoma cruzi, “Not Active”; in experiment [1] it was “Not Active”; with Plasmodium falciparum, 1.7 µM; in experiment [2] (setting [6]) it was 34.1 µM; in the experiment with Leishmania donovani, “Not Active”. For the same compound, in the experiment with L6, the IC50 was over 100 µM.

Turning to `COc1cccc2c(-c3ccc(O)c4c3CCN=C4)ccc(O)c12`, the IC50 entry is “Not Active” in the experiment on Leishmania major; “Not Active” with Trypanosoma cruzi; “Not Active” in experiment [1]; 1.99 µM in the experiment with Plasmodium falciparum; “Not Active” in experiment [2]; “Not Active” with Leishmania donovani. In addition, in the experiment with L6, the midpoint of inhibition, the IC50, lay at 98.2 µM.

On to `C[C@@H]1[C@H](O)[C@@H](C)/C=C/C=C/C=C/C=C/C=C/C=C/C=C/[C@H](O[C@@H]2O[C@H](C)[C@@H](O)[C@H](N)[C@@H]2O)C[C@@H]2O[C@](O)(C[C@@H](O)C[C@@H](O)[C@H](O)CC[C@@H](O)C[C@@H](O)CC(=O)O[C@H]1C)C[C@H](O)[C@H]2C(=O)O` [AMPHOTERICIN B], for which the IC50 with Leishmania major (setting [3]) turned out to be 2.51 µM.

In the case of `O=C(Cn1ccnc1[N+](=O)[O-])NCc1ccccc1` [BENZNIDAZOLE], the IC50 in the experiment with Trypanosoma cruzi (setting [4]) was found to be 1.98 µM.

Regarding `Nc1nc(N)nc(Nc2ccc([As]3SCC(CO)S3)cc2)n1` (configuration not stated) [MELARSOPROL], the IC50 in experiment [1] (setting [5]) is 0.007 µM.

For the compound `N=C(N)c1ccc(OCCCCCOc2ccc(C(=N)N)cc2)cc1` [PENTAMIDINE], the IC50 in experiment [2] (setting [6]) was determined as 0.003 µM.

The values are drawn from ChEMBL document CHEMBL1275325, “QSAR guided synthesis of simplified antiplasmodial analogs of naphthylisoquinoline alkaloids” (Eur J Med Chem, 2010).
